Measured values as given in patent US6531512B1, “Method of treating cancer in patients having a deficiency in p53 tumor suppressor gene” (Health Research Inc., priority 1998, dated 2003).

Assays:
[1] = test system: SK-MEL-28 cells; assay: Apoptosis by proton NMR of membrane lipids (methylene/methyl ratio); format: cell-based, human; details: 10 μM
Protocol: Apoptosis of MALME-3M and SK-MEL-28 cells due to treatment with 10 μM DENSPM was quantified using proton nuclear magnetic resonance (NMR) spectroscopy. NMR was used to detect membrane phospholipid spectral intensity changes which correlate with surface expression of phosphatidylserine, an early marker of apoptosis. Changes in methylene and methyl peaks were detected by the […] described by Blankenberg et al., Blood, 89:3778-3786 (1997).
Intensity changes in membrane lipids was measured using NMR after 72 hours of continuous treatment with 10 μM DENSPM. […] The SK-MEL-28 cells undergo a rapid spectral ratio change which correlates with the massive cell loss seen in FIG. 4. Maximal cell death occurred by 48 hours in SK-MEL-28 cells. The data represent the mean ratio±standard deviation.
For perspective, a methylene to methyl spectral ratio of about 1 is typical of untreated cells while a ratio of about 3 is the maximum attainable with most apoptotic responses. Thus, the ratio of 2.6 observed with DENSPM-treated SK-MEL-28 cells at 48 hours represents a full scale response.

[2] = test system: MALME-3M human melanoma cells; assay: Cell growth of MALME-3M cells (Coulter Counter); format: cell-based; details: 10 μM
Protocol: MALME-3M human melanoma cells containing wt-p53 (American Tissue Type Culture Collection, Bethesda, Md.) and human SK-MEL-28 cells containing mt-p53 (American Tissue Type Culture Collection, Bethesda, Md.) were cultured as a monolayer in RPMI 1640 medium containing 10% Nu-Serum (Collaborative Research Products, Bedford, Mass.), 1 mM aminoguanidine, penicillin (50 units/ml) and streptomycin (50 μg/ml) as described by Kramer et al, J. Biol. Chem., 270:2124-32 (1995) and Kramer et al., Cancer Res., 57:5521-5527 (1997).
MALME-3M cells were cultured as described in Example 1. The cells were seeded by adding 1×10^5 cells to a T-25 vented cell culture flask. After 24 hours, the asynchronous cell cultures were treated with 10 μM N^1, N^11-diethylnorspermine (DENSPM) prepared by dissolving DENSPM in distilled water and sterilizing the solution by filtration through a 0.22 micron Millipore membrane. The cells were treated by continuous exposure to DENSPM for 6 days (i.e., the polyamine was added to the cell culture at T=0 and the culture was incubated for the desired amount of time). The number of viable MALME-3M cells were monitored electronically using a Model ZM Coulter Counter (Coulter Electronics, Hialeah, Fla.). Untreated MALME-3M cell cultures were used as controls.
(§1) MALME-3M human melanoma cells were cultured as described in Example 1 and treated continuously with 10 μM DENSPM or 10 μM spermine (SPM) for 48 hours. SK-MEL-28 cells were also cultured as described in Example 1 and treated with 10 μM DENSPM for 24 hours. Untreated cells were used as a control.
The effect of DENSPM and spermine on cell growth was monitored using a Coulter Counter (see Example 2). The effect on cell cycle was monitored by flow cytometry as described in Example 3.

[3] = test system: cell cycle regulatory proteins (p53, p21, p16, p27); assay: Western blot of cell cycle regulatory proteins in SK-MEL-28 cells; format: cell-based, human; details: SK-MEL-28, 10 μM
Protocol: MALME-3M and SK-MEL-28 cells cultured as described in Example 4 were treated with 10 μM DENSPM for 0 to 48 hours. Western blot analysis of cell cycle regulatory proteins, including p53, p21, p27, ppRb, pRb, cyclin D1 and PCNA was performed following the procedure described by Fogel-Petrovic et al. in Molec. Pharm, 52:69-74 (1997); and Biochemistry, 35:14436-14444 (1996). Antibodies used for detecting the proteins were obtained commercially as follows: p53 from Santa Cruz Biotechnology, Inc. (Santa Cruz, Calif.); PCNA and Cyclin D1 from Oncogene Research Products (Cambridge, Mass.); Rb and p21 from PharMigen (San Diego, Calif.); p27 from Transduction labs (Lexington, Ky.) and β-actin (used to correct for variations in loading) from Sigma Chemical Co. (St. Louis, Mo.). Western blot analysis of each of these proteins was performed at least three times.
The effects of 10 μM DENSPM on MALME-3M and SK-MEL-28 cell growth and cell cycle regulatory proteins were determined as described in Examples 2 and 3, respectively. Panel A is a comparison of the effects of DENSPM on cell growth. Panel B is a comparison of cell cycle regulatory proteins. […] In contrast, p16 was not detectable in MALME-3M cells. Data is representative of at least two experiments.

[4] = test system: mRNA for p53 and p21; assay: Northern blot of p53 and p21 mRNA in MALME-3M cells; format: cell-based, human; details: asynchronous, 10 μM
Protocol: Asynchronously growing MALME-3M cells were treated for 0 to 48 hours with 10 μM DENSPM as described in Example 2. Northern blots were used to detect mRNA for p53 and p21. The Northern blot procedure is described by Fogel-Petrovic et al. in Molec. Pharn, 52:69-74 (1997); and Biochemistry, 35:14436-14444 (1996). cDNA probes used in Nothern blot hybridization of p21 and p53 mRNA were obtained, respectively, from Dr. Bert Vogelstein (Johns Hopkins Oncology Center, Baltimore, Md.; El-Deiry et al., Cell, 75:817-825) and from Dr. Stephen Friend (Seattle, Wash.; Ishioka et al., Oncogene 10:1485-1492 (1995)). The relative increase in mRNA with analog treatment was normalized to the […] (GAPDH) signal to account for lane loading differences.

[5] = test system: spermidine/spermine N^1-acetyltransferase (SSAT); assay: Polyamine enzyme activity in treated melanoma cells: SSAT induction; format: cell-based, human; details: SK-MEL-28 cells, 24 hours
Protocol: as §1, with “treated” for “treated continuously”, “as described in Example 4.” for “for 48 hours.”, “as describe in Example 4.” for “for 24 hours.”
After treatment with DENSPM or spermine, biochemical parameters including polyamine enzymes activity, polyamine pools and analog accumulation were monitored as described by Kramer et al, J. Biol. Chem., 270:2124-32 (1995) and Kramer et al., Cancer Res., 57:5521-5527 (1997). Polyamine enzyme activity was monitored for ornithine […] (ODC); S-adenosylmethionine decarboxylase (SAMDC); and spermidine/spermine N^1-acetyltransferase (SSAT). Polyamine pools was monitored for putrescine (Put); spermidine (Spd); and spermine (Spm).
Enzyme activity and polyamine pools were measured as described in Example 5.

**Q.** Which “time of maximal cell death” value [1] does the source give for `CCNCCCNCCCNCCCNCC` [DENSPM, N^1,N^11-diethylnorspermine] here?
**A.** ≤ 48 h

**Q.** And the “methylene to methyl spectral ratio” value ([1]; 48 hours)?
**A.** 2.6

**Q.** And the “% Control Growth” value ([2]; MALME-3M (wt-p53), 48 hours)?
**A.** 54%

**Q.** And the “% Growth Control” value ([2]; MALME-3M (wt-p53), Table 2 (24 hours treatment))?
**A.** 83%

**Q.** What about the “time course of viable cell number” value ([2]; MALME-3M, asynchronous, continuous exposure 6 days) of the same compound?
**A.** steady growth for the first 24 hours, then a plateau and then began to decline in number from 48 hours onwards

**Q.** And the “cdk inhibitors p16 and p27” value [3]?
**A.** not increased

**Q.** And the “p21 protein induction with treatment” value [3]?
**A.** not induced

**Q.** What about the “induction of p53” value ([3]; 24 hours) of the same compound?
**A.** no induction

**Q.** What about the “start of p21 mRNA increase” value [4] of the same compound?
**A.** 12 h

**Q.** What about the “p53 mRNA” value ([4]; 0 to 48 hours, normalized to GAPDH) of the same compound?
**A.** remained constant

**Q.** And the “p21 mRNA increase” value ([4]; 48 hours, normalized to GAPDH)?
**A.** about 20 fold

**Q.** And the “SSAT activity” value [5]?
**A.** 31,920 pmol/min/mg

**Q.** What about the “Enzyme Activities, SSAT” value ([5]; Table 4) of the same compound?
**A.** 31920 pmol/min/mg protein
